Experimental data from ChEMBL document CHEMBL5143695, “Benzobis(imidazole) derivatives as STAT3 signal inhibitors with antitumor activity” (Bioorg Med Chem, 2022).
Active and inactive are the calls of the source. The rule behind the calls is not given here.

Experiments:
[1] = test system: HepG2; experiment: Induction of apoptosis in human HepG2 cells assessed as viable cells at 5 uM incubated for 48 hrs by Annexin V/PI staining based flow cytometry method (reference value: 92.5%); type: functional; conditions: read-out: Activity
[2] = Inhibition of IL-6/JAK/STAT3 signalling pathway in HEK-blue IL-6 cells incubated for 16 hrs by SEAP reporter gene based QUANTI- blue assay; type: cell-based; conditions: Homo sapiens, HEK-Blue IL-6, 16 h
[3] = Cytotoxicity against HEK-Blue IL-6 cells; type: toxicity, cell-based; conditions: human
[4] = test system: HepG2; experiment: Antitumor activity against human HepG2 cells assessed as reduction in cell viability incubated for 72 hrs by MTT assay; type: functional, cell-based; conditions: HepG2, 72 h
[5] = test system: ECa-109 cell line; experiment: Antitumor activity against human EC109 cells assessed as reduction in cell viability incubated for 72 hrs by MTT assay; type: functional, cell-based; conditions: ECa-109, 72 h
[6] = biological target: Signal transducer and activator of transcription 3 (Homo sapiens) (UniProt P40763); experiment: Inhibition of STAT3 phosphorylation at Y705 residue in human HepG2 cells measured after 16 hrs by Western blotting analysis; type: cell-based; conditions: dose 2.5-20 µM, DDE = dose-dependent effect
[7] = biological target: Signal transducer and activator of transcription 3 (Homo sapiens) (UniProt P40763); experiment: Binding affinity to STAT3 (unknown origin) expressed in Escherichia coli BL21 (DE3) assessed as thermal stability by measuring STAT3 accumulation at 55 to 80 degree C at 100 uM incubated for 30 mins by thermal shift assay
[8] = biological target: Signal transducer and activator of transcription 3 (Homo sapiens) (UniProt P40763); experiment: Inhibition of STAT3 nuclear translocation in human HepG2 cells assessed as decrease in nuclear STAT3 level at 5 to 10 microM incubated overnight by immunofluorescence analysis; type: cell-based; conditions: dose 5-10 µM
[9] = biological target: Signal transducer and activator of transcription 3 (Homo sapiens) (UniProt P40763); experiment: Inhibition of STAT3 dimerization in human HepG2 cells assessed as decrease in STAT3 dimer formation at 5 to 10 uM incubated for 24 hrs by SDS-PAGE based DSS crosslink assay; type: cell-based; conditions: dose 5-10 µM
[10] = biological target: Signal transducer and activator of transcription 3 (Homo sapiens) (UniProt P40763); experiment: Inhibition of STAT3 dimerization in human HepG2 cells assessed as increase in STAT3 monomer expression at 5 to 10 uM incubated for 24 hrs by DSS crosslink assay; type: cell-based; conditions: dose 5-10 µM
[11] = test system: HepG2; experiment: Induction of apoptosis in human HepG2 cells assessed as late apoptotic cells at 5 uM incubated for 48 hrs by Annexin V/PI staining based flow cytometry method (reference value: 3.64%); type: functional
[12] = test system: HepG2; experiment: Induction of apoptosis in human HepG2 cells assessed as early apoptotic cells at 10 uM incubated for 48 hrs by Annexin V/PI staining based flow cytometry method (reference value: 3.31%); type: functional
[13] = test system: HepG2; experiment: Induction of apoptosis in human HepG2 cells assessed as late apoptotic cells at 10 uM incubated for 48 hrs by Annexin V/PI staining based flow cytometry method (reference value: 3.64%); type: functional
[14] = test system: HepG2; experiment: Induction of apoptosis in human HepG2 cells assessed as viable cells at 20 uM incubated for 48 hrs by Annexin V/PI staining based flow cytometry method (reference value: 92.5%); type: functional; conditions: read-out: Activity
[15] = test system: HepG2; experiment: Induction of apoptosis in human HepG2 cells assessed as late apoptotic cells at 20 uM incubated for 48 hrs by Annexin V/PI staining based flow cytometry method (reference value: 3.64%); type: functional
[16] = test system: HepG2; experiment: Induction of apoptosis in human HepG2 cells assessed as necrotic cells at 20 uM incubated for 48 hrs by Annexin V/PI staining based flow cytometry method (reference value: 0.57%); type: functional
[17] = test system: ECa-109 cell line; experiment: Induction of apoptosis in human EC109 cells assessed as viable cells at 5 uM incubated for 48 hrs by Annexin V/PI staining based flow cytometry method (reference value: 91.7%); type: functional; conditions: read-out: Activity
[18] = test system: ECa-109 cell line; experiment: Induction of apoptosis in human EC109 cells assessed as late apoptotic cells at 5 uM incubated for 48 hrs by Annexin V/PI staining based flow cytometry method (reference value: 6.17%); type: functional
[19] = test system: ECa-109 cell line; experiment: Induction of apoptosis in human EC109 cells assessed as necrotic cells at 5 uM incubated for 48 hrs by Annexin V/PI staining based flow cytometry method (reference value: 0.73%); type: functional
[20] = test system: ECa-109 cell line; experiment: Induction of apoptosis in human EC109 cells assessed as viable cells at 10 uM incubated for 48 hrs by Annexin V/PI staining based flow cytometry method (reference value: 91.7%); type: functional; conditions: read-out: Activity
[21] = test system: ECa-109 cell line; experiment: Induction of apoptosis in human EC109 cells assessed as early apoptotic cells at 10 uM incubated for 48 hrs by Annexin V/PI staining based flow cytometry method (reference value: 1.36%); type: functional
[22] = test system: ECa-109 cell line; experiment: Induction of apoptosis in human EC109 cells assessed as late apoptotic cells at 20 uM incubated for 48 hrs by Annexin V/PI staining based flow cytometry method (reference value: 6.17%); type: functional
[23] = test system: ECa-109 cell line; experiment: Induction of apoptosis in human EC109 cells assessed as necrotic cells at 20 uM incubated for 48 hrs by Annexin V/PI staining based flow cytometry method (reference value: 0.73%); type: functional
[24] = test system: HepG2; experiment: Induction of apoptosis in human HepG2 cells assessed as downregulation of MCL-1 protein expression by Western blotting analysis; type: functional, cell-based; conditions: dose 2.5-20 µM, DDE = dose-dependent effect
[25] = test system: ECa-109 cell line; experiment: Induction of apoptosis in human EC109 cells assessed as downregulation of MCL-1 protein expression by Western blotting analysis; type: functional, cell-based; conditions: dose 2.5-20 µM, DDE = dose-dependent effect
[26] = test system: HepG2; experiment: Induction of apoptosis in human HepG2 cells assessed as downregulation of cyclin D1 protein expression by Western blotting analysis; type: functional, cell-based; conditions: dose 2.5-20 µM, DDE = dose-dependent effect
[27] = test system: ECa-109 cell line; experiment: Induction of apoptosis in human EC109 cells assessed as downregulation of cyclin D1 protein expression by Western blotting analysis; type: functional, cell-based; conditions: dose 2.5-20 µM, DDE = dose-dependent effect
[28] = test system: HepG2; experiment: Induction of cell cycle arrest in human HepG2 cells assessed as accumulation of cells at G0/G1 phase incubated for 24 hrs by flow cytometric analysis (reference value: 66.65%); type: functional
[29] = test system: HepG2; experiment: Induction of cell cycle arrest in human HepG2 cells assessed as decrease in cells at S phase incubated for 24 hrs by flow cytometric analysis (reference value: 23.01%); type: functional; design: scale not given: the % may be the effect or the level left
[30] = test system: ECa-109 cell line; experiment: Induction of cell cycle arrest in human EC109 cells assessed as accumulation of cells at G0/G1 phase incubated for 24 hrs by flow cytometric analysis (reference value: 49.86%); type: functional
[31] = test system: ECa-109 cell line; experiment: Induction of cell cycle arrest in human EC109 cells assessed as decrease in cells at S phase incubated for 24 hrs by flow cytometric analysis (reference value: 36.08%); type: functional; design: scale not given: the % may be the effect or the level left
[32] = test system: HepG2; experiment: Induction of cell cycle arrest in human HepG2 cells assessed as downregulation of cyclin D1 protein expression by Western blotting analysis; type: functional, cell-based; conditions: dose 2.5-20 µM, DDE = dose-dependent effect
[33] = test system: HepG2; experiment: Inhibition of cell migration in human HepG2 cells incubated for 48 hrs by microscopic analysis based wound healing assay; type: functional; conditions: dose 5-10 µM, DDE = dose-dependent effect
[34] = test system: HepG2; experiment: Antitumor activity against human HepG2 cells xenografted in BALB/c athymic nude mouse assessed as tumor growth inhibition at 40 mg/kg, ip administered daily for 24 days relative to control; type: functional; conditions: HepG2, 576 h, time 24 day, read-out: TGI
[35] = test system: HepG2; experiment: Antitumor activity against human HepG2 cells xenografted in BALB/c athymic nude mouse assessed as decrease in Ki67 expression level at 20 to 40 mg/kg, ip administered daily for 24 days; type: functional, organism-based; conditions: dose 20-40 mg/kg, time 24.0 day
[36] = test system: HepG2; experiment: Antitumor activity against human HepG2 cells xenografted in BALB/c athymic nude mouse assessed as decrease in STAT3 phosphorylation at Y705 residues at 20 to 40 mg/kg, ip administered daily for 24 days; type: functional, organism-based; conditions: dose 20-40 mg/kg, time 24.0 day

Sequence of Signal transducer and activator of transcription 3 (Homo sapiens) (P40763 whole entry): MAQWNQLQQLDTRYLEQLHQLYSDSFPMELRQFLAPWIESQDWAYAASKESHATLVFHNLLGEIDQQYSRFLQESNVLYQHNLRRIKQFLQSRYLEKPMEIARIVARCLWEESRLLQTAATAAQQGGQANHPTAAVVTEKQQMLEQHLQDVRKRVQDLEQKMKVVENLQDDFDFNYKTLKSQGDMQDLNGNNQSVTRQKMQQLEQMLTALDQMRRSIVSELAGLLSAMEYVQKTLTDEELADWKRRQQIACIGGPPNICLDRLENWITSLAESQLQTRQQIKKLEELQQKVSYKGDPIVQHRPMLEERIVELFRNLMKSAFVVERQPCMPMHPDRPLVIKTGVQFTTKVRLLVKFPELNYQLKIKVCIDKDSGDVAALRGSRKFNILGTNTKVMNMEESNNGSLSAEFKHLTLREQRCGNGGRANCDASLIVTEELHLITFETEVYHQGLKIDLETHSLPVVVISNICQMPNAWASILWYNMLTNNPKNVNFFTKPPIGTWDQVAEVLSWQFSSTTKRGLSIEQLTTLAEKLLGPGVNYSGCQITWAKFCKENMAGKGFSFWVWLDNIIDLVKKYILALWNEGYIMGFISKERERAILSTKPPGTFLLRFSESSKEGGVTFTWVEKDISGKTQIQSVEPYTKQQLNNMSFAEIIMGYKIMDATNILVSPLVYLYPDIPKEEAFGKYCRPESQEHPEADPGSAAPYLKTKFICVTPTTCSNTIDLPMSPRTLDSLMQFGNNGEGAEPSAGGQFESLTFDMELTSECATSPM

Q: For `CCCn1c(-c2cccc(OC)c2)nc2cc3nc(-c4cccc(OC)c4)n(CCC)c3cc21`, which viability at 5 µM [1] is on record?
A: 76.6%

Q: And the IC50 [2]?
A: 2.61 µM

Q: And the IC50 [3]?
A: > 10 µM

Q: And the IC50 [4]?
A: 4.3 µM

Q: And the IC50 [5]?
A: 3.63 µM

Q: And the inhibition [6]?
A: Dde

Q: And the Activity [7]?
A: Active

Q: What about the inhibition [8] of the same compound?
A: Active

Q: What about the inhibition [9] of the same compound?
A: Active

Q: And the inhibition [10]?
A: Active

Q: What about the Activity [11] of the same compound?
A: 13.4%

Q: What about the Activity [12] of the same compound?
A: 19.7%

Q: And the Activity [13]?
A: 39.4%

Q: And the viability at 20 µM [14]?
A: 17.3%

Q: And the Activity [15]?
A: 51.9%

Q: And the Activity [16]?
A: 0.91%

Q: And the viability at 5 µM [17]?
A: 85.8%

Q: What about the Activity [18] of the same compound?
A: 11%

Q: What about the Activity [19] of the same compound?
A: 0.87%

Q: And the viability at 10 µM [20]?
A: 70.5%

Q: And the Activity [21]?
A: 11.2%

Q: What about the Activity [22] of the same compound?
A: 31.4%

Q: And the Activity [23]?
A: 3.56%

Q: What about the Activity [24] of the same compound?
A: Dde

Q: And the Activity [25]?
A: Dde

Q: What about the Activity [26] of the same compound?
A: Dde

Q: What about the Activity [27] of the same compound?
A: Dde

Q: What about the Activity [28] of the same compound?
A: 74.51%

Q: And the Activity [29]?
A: 16.55%

Q: What about the Activity [30] of the same compound?
A: 58.73%

Q: What about the Activity [31] of the same compound?
A: 28.53%

Q: And the Activity [32]?
A: Dde

Q: And the inhibition [33]?
A: Dde

Q: What about the inhibition in vivo at 40 mg/kg [34] of the same compound?
A: 47.3%

Q: What about the Activity [35] of the same compound?
A: Active

Q: And the Activity [36]?
A: Active
